Experimental data published in patent US4251628A, “Substrates for angiotensin converting enzyme” (priority 1978, dated 1981).

Assays:
[1] = biological target: T1, angiotensin converting enzyme (ACE) (Homo sapiens, UniProt P12821); experiment: ACE assay: hydrolysis of ^3H-HipGlyGly by human serum, Lineweaver-Burke Km; assay type: biochemical
T1 construct: Serum was prepared from fresh whole blood by standard techniques; from tissue; host or cells: serum (unfractionated)
Experimental: The following sample illustrates the preferred assay method, the sensitivity of the assay and the Km for ^3 H-HipGlyGly. The reaction buffer contains 0.05 M Hepes, 0.1 M sodium chloride and 0.6 M sodium sulphate at pH 8.0. (Pepes is N-2-Hydroxyethyl piperazine N'-2-ethane sulfonic acid.) The substrate, ^3 H-HipGlyGly was dissolved in reaction buffer at a concentration of 16 mM and a specific radioactivity of about 0.15 millicuries/millimole. Serum was prepared from fresh whole blood by standard techniques. […] Hemolyzed samples were not used in the assay. Serum samples could be stored at least for one week at 2° C. to 8° C. or for at least 8 weeks frozen, prior to assaying. For the assay, 50 μl. of serum was diluted with 200 μl. of reaction buffer. All the reactions were carried out in glass tubes due to the potentially destructive action of ethyl acetate on plastic.
The reaction mixture was composed of 50 μl. of diluted serum, an appropriate amount of substrate solution depending on the final substrate concentration desired, and reaction buffer sufficient to give a total reaction volume of 100 μl. All reaction tubes were incubated for 60 minutes at 37° C. Reactions were terminated by the addition of 1.0 ml. of 0.1 N hydrochloric acid. The reaction mixture was then extracted with 1.0 ml. ethyl acetate, by rotary agitation for 4-5 seconds. The phases were separted by centrifugation at 1000×G for ten minutes. A 0.5 ml. sample of the ethyl acetate (upper) layer was removed and tranferred to a scintillation vial containing 10 ml. scintillation fluid. (Riafluor, Trademark, New England Nuclear Corp., Boston, Mass.)
(§1) A control determination of background radioactivity was made using 50 μl. of reaction buffer instead of diluted serum in the reaction mixture. The purpose of this control was to determine the number of total counts attributable to background radiation, non-specific release of hippuric acid and the presence of unreacted substrate in the ethyl acetate phase. Less than 7% of the ^3 H-HipGly Gly entered the organic phase. Total radioactivity was determined by counting an amount of substrate equal to that used in the reaction mixture directly in the scintillation counter.
Reaction velocity, in terms of nanomoles of product formed per minute per ml of serum was calculated according to the following formula: [formula] In this formula, "nmoles" means nanomoles, "min" means minutes, "ml" means milliliters and "cpm" means radioactivity counts per minute. The factor of 2 is a correction for the aliquot size. In the case where a significant fraction of substrate has been hydrolyzed, and the substrate in one which is more soluble in the organic phase, as for example, ^125 I-HPPGlyGlyGly, a modified formula is used to take account of the decreasing amount of substrate as the reaction progresses: [formula]
Reciprocal values of initial substrate concentration and reaction velocity were calculated and graphed according to the method of Lineweaver and Burke, as shown in FIG. 1. A straight line was obtained, which intercepted the ordinate at a value equal to the reciprocal of the maximum velocity of the enzyme reaction and intercepted the abcissa at a value equal to the negative reciprocal of the apparent Michaelis constant. […] It can be seen that reaction velocities as low as 12 nanomoles of substrate hydrolyzed per minute per ml. of serum can readily be measured.

[2] = system: angiotensin converting enzyme (ACE); conditions: HipGlyGly as substrate, cited from earlier work
[3] = Extraction (partition) into ethyl acetate; assay type: physicochemical
Text: (§2) Reaction conditions optimal for carrying out an ACE catalyzed hydrolysis of a substrate of the present invention are the same as have been previously described for substrates known in the prior art. Detailed studies of optimal conditions using HipGlyGly as substrate have been reported by Dorer, et al. The pH optimum is approximately 8.0 although greater than 50% maximal activity is obtained in the pH range 7.0-9.0, in the presence of 1 M NaCl. […] The relationship between the chloride requirement and the ionic strength requirement has not been fully characterized. […] Phosphate is inhibitory. Hepes, bicine and barbital buffers are suitable for use but Hepes is preferred because it provides maximum activity. Preferred conditions of buffer composition, ionic strength, pH and temperature are described in Example 1. […] The pH range for usable enzyme activity is from pH 6.5 to pH 8.7, with a broad plateau of maximal activity ranging from pH 7.2 to pH 8.5. Optimal substrate concentration depends upon the apparent Km, for the substrate compared with the Km's of possible competing substances in the sample. A substrate having a relatively low Km, such as ^3 H-benzoylProPheArg (Km 2×10^-4 M) could be suitably used at a concentration less than its Km. A substrate having a higher Km might better be used at a concentration greater than its Km. […] Because its Km is the lowest of any of the substrates of the present invention, ^3 H-benzoylProPheArg is the most preferred substrate for assays where ACE activity is low and maximum sensitivity is desired. In addition to being less sensitive to competitive inhibition, assays carried out with this substrate are potentially able to measure lower levels of ACE than the other substrates disclosed herein. Additionally, its partition behavior in an aprotic organic solvent is extremely favorable: only about 3% entered ethyl acetate in a preliminary extraction experiment. The remnant product Benzoylproline was about 90% extracted.
The remnant reaction product may be extracted from the reaction mixture by an aprotic organic solvent which affords a reasonably quantitative separation of product from substrate. The use of solvents which may interfere with the counting process is to be avoided. Ethyl acetate is preferred. Approximately 91% of ^3 H-Hippuric acid is extracted into ethyl acetate. Extraction may be carried out by any suitable means familiar to those skilled in the art, such as shaking, agitating, mixing and the like. Separation of the phases is conveniently accomplished by centrifugation. Centrifugation at 1000×G for ten minutes is preferred, either at room temperature or in a refrigerated centrifuge. In some cases, an emulsion will form which can be separated by a longer centrifugation step.
as §1, with “counter. […]” for “counter.”

serum carboxypeptidase = experiment: Sensitivity to serum carboxypeptidase; assay type: biochemical
[4] = system: angiotensin converting enzyme (ACE); conditions: similar reaction conditions, enzyme from hog lung (Dorer et al.); cited from earlier work
[5] = system: angiotensin converting enzyme (ACE); experiment: ACE-catalyzed hydrolysis: Km, pH, chloride and buffer dependence; assay type: biochemical; conditions: by substrate
Text: as §2

[6] = biological target: T2, angiotensin converting enzyme (ACE) (Cavia porcellus, UniProt H0UWL7); experiment: Hydrolysis of ^125I-HPPGlyGlyGly by guinea pig serum ACE; assay type: biochemical
T2 construct: native circulating soluble form, expected to be shed somatic ACE
T2 sequence (H0UWL7 33-1234): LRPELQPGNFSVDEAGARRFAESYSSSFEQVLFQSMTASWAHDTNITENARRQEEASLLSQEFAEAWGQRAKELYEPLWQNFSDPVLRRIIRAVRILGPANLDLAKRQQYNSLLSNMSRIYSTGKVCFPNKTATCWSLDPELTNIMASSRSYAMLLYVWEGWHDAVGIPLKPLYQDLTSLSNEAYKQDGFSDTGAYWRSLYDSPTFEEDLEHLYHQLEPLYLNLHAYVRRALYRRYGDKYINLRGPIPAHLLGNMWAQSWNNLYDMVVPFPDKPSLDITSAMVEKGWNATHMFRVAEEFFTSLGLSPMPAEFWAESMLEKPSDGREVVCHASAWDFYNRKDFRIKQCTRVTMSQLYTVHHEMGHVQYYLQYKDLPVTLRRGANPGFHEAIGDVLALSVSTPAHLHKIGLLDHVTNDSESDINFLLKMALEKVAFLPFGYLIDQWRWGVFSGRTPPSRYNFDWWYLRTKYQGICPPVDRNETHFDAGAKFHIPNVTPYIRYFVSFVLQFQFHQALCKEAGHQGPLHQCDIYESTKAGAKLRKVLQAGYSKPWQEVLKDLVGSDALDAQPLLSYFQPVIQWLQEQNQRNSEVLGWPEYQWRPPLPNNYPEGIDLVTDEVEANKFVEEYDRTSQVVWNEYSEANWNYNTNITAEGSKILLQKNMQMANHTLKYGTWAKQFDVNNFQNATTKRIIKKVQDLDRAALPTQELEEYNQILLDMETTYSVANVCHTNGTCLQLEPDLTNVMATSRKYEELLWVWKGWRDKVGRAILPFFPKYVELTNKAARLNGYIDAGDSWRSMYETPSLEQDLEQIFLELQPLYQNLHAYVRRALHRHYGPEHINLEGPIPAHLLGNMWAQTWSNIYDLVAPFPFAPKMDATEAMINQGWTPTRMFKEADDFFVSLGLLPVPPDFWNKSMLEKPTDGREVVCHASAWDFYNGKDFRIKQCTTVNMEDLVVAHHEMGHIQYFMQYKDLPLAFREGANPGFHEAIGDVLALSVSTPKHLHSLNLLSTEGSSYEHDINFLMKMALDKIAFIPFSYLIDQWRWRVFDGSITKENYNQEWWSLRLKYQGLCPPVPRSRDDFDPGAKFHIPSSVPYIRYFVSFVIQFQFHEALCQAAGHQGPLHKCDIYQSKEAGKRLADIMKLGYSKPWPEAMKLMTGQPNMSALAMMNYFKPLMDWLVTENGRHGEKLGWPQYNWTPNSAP
Experimental: The standard assay conditions as described in Example 1 were employed except that the source of ACE was guinea pig serum and the amount of substrate added was that amount needed to give 101,436 total counts per minute. In terms of mass, this amount is believed to be well below the Km for the substrate. Samples were incubated for 15 minutes, 30 minutes and 60 minutes, and an unreacted sample (0 time) was used to determine the amount of substrate extracted into ethyl acetate.

T1 sequence (P12821 30-1232 limits assumed): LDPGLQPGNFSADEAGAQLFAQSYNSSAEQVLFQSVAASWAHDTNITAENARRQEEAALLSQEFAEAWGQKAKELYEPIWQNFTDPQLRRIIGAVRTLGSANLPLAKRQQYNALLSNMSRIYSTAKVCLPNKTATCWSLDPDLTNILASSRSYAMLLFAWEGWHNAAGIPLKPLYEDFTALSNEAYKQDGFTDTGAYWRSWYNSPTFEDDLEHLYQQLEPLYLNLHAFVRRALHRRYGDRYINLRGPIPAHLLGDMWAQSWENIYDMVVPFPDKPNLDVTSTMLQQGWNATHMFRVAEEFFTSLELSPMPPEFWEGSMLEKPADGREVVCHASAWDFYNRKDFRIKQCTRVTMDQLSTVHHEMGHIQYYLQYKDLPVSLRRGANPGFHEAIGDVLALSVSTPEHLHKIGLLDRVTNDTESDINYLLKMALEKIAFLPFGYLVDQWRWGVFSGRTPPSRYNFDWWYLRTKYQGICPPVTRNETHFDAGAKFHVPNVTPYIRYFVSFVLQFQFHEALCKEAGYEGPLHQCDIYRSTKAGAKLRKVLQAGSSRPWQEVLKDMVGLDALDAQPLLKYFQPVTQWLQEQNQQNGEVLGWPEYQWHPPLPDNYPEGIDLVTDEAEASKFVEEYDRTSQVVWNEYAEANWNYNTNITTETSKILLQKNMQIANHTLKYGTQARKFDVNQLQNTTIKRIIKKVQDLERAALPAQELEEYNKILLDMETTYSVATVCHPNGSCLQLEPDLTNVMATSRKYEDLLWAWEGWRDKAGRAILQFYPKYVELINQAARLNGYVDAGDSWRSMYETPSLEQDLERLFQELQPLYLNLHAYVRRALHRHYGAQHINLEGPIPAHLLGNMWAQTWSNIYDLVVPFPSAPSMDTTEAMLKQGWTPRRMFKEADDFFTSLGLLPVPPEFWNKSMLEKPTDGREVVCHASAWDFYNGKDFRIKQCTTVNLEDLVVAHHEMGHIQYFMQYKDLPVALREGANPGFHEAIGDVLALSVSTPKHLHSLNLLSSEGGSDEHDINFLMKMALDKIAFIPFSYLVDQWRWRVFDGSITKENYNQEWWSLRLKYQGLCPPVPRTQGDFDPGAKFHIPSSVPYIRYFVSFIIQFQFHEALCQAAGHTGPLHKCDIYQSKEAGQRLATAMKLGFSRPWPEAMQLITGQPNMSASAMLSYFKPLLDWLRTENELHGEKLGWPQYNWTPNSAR

SMILES: [3H]c1ccc(C(=O)NCC(=O)NCC(=O)NCC(=O)O)cc1 [^3 H-HipGlyGly, ^3 H-hippurylglycylglycine]
- Reciprocal of reaction velocity ([1]; [S] 1.82 mM): 0.0504
- Velocity ([1]; [S] 1.82 mM): 19.83 nanomoles of product formed pe
- Reciprocal of reaction velocity ([1]; [S] 3.64 mM): 0.0289
- Velocity ([1]; [S] 3.64 mM): 34.65 nanomoles of product formed pe
- Reciprocal of reaction velocity ([1]; [S] 5.45 mM): 0.0214
- Velocity ([1]; [S] 5.45 mM): 46.76 nanomoles of product formed pe
- Reciprocal of reaction velocity ([1]; [S] 7.27 mM): 0.0191
- Velocity ([1]; [S] 7.27 mM): 52.48 nanomoles of product formed pe
- Reciprocal of reaction velocity ([1]; [S] 9.09 mM): 0.0183
- Velocity ([1]; [S] 9.09 mM): 54.63 nanomoles of product formed pe
- Reciprocal of reaction velocity ([1]; [S] .91 mM): 0.0810
- Velocity ([1]; [S] .91 mM): 12.35 nanomoles of product formed pe
- Assay sensitivity (lowest measurable enzyme activity) ([1]; assay condition of Example 1): 8 units of enzyme per ml
- pH range with greater than 50% maximal activity ([2]; 1 M NaCl): 7.0-9.0
- pH optimum of ACE-catalyzed hydrolysis ([2]; Dorer et al.): approximately 8.0
- Fraction extracted into ethyl acetate [3]: Less than 7%
- Sensitivity to serum carboxypeptidase (serum carboxypeptidase): insensitive to serum carboxypeptidase
- Km [4]: 2600 µM
- Chloride / ionic strength requirement of the ACE-catalyzed hydrolysis [5]: requires chloride ions

SMILES: O=C(O)CNC(=O)CNC(=O)CNC(=O)CCc1ccc(O)c([125I])c1 [^125 I-HPPGlyGlyGly, ^125 I-p-hydroxyphenylpropionylglycylglycylglycine]
- Net cpm in product ([6]; incubation 0 min): 0 cpm
- cpm in Ethyl Acetate phase ([6]; incubation 0 min): 27,205 cpm
- Net cpm in product ([6]; incubation 15 min): 17,808 cpm
- cpm in Ethyl Acetate phase ([6]; incubation 15 min): 40,000 cpm
- Net cpm in product ([6]; incubation 30 min): 43,804 cpm
- cpm in Ethyl Acetate phase ([6]; incubation 30 min): 59,182 cpm
- Net cpm in product ([6]; incubation 60 min): 58,044 cpm
- cpm in Ethyl Acetate phase ([6]; incubation 60 min): 69,577 cpm
- Fraction extracted into ethyl acetate [3]: 27.2%
- Sensitivity to serum carboxypeptidase (serum carboxypeptidase): insensitive to serum carboxypeptidase
- Chloride / ionic strength requirement of the ACE-catalyzed hydrolysis [5]: requires chloride ions
